Data as given in PMC11544072 (Heliyon, 2024).

Each molecule was assayed against CYP154C7 (assay: UV/Vis spectral titration, type I spin shift).
Type: binding, Streptomyces sp. PAMC26508

`C[C@]12CCC(=O)C=C1CC[C@@H]1[C@@H]2CC[C@]2(C)C(=O)CC[C@@H]12` [androstenedione] and `C[C@]12CC[C@H]3[C@@H](CCC4=CC(=O)CC[C@@]43C)[C@@H]1CC[C@@H]2O` [testosterone] are within error of each other in Kd: 201 ± 43 nM for the first, 304 ± 70 nM for the second.

`C[C@]12CCC(=O)C=C1CC[C@@H]1[C@@H]2C(=O)C[C@@]2(C)[C@H]1CC[C@]2(O)C(=O)CO` [cortisone] showed a Kd of 2000 ± 340 nM.
